Data taken from patent EP1276895B1, “METHOD FOR THE IDENTIFICATION OF ACTIVE SITE PROTEASE INACTIVATORS” (THE UNIVERSITY OF GEORGIA RESEARCH FOUNDATION, INC., priority 2000, dated 2001).
Residues, ends and D or L forms follow the SMILES beside them. *: point of attachment. AFC = O=c1cc(C(F)(F)F)c2ccc(N*)cc2o1; Cbz = O=C(OCc1ccccc1)*; CH2F = FC*

How the values were obtained:
[1] = system: purified Taenia solium cysteine protease; assay: Inhibition assay of protease inactivators against the high Vmax cocktail, EC100 and Ki ranking (Step VII B); assay type: biochemical; conditions: for ranking of protease inactivators by EC100: dilution study, nanomolar levels; for % Inhibition of T. solium CP in vitro: concentration not stated in Table 4; for Ki of protease inactivator: nonlinear fitting and Dixon plot, values not reported
From the text: Once the protease inactivators were synthesized in the organic laboratory, they were to be tested for the lowest efficacious concentrations at which they induced 100% inhibition of the target protease (EC100). The top percent cocktail that was employed in the final vehicle selection step of Step III was employed as the source of competition for the inhibitors. In this case, this was the […] which was comprised of Z-FR-AFC, Z-FAR-AFC, Z-AP-AFC, Z-AAK-AFC, and Z-VLR-AFC. The final result would be a ranking of transition state candidate protease inactivators with a high ranking directly correlating to a low EC100 value. The following steps describe the assay:
Step A: Initial Screening. To set up the test control, each protease inactivator was first incubated with the […] (which provided the final differentiation of vehicles in Step III). To begin with, the protease inactivator was incubated at a concentration of 3 X 10^-9M in 500 ul of assay buffer ([…], pH 4.9 supplemented with 10mM L-cysteine). This concentration was determined, after a series of inhibitor dilutions identified, to be the best inhibitor concentration at which a differentiation in inhibitor potential could be noted. Next, a concentration equal to 4 X 10^-5M for each of the individual cocktail components, was added to the mix. The components were allowed to equilibrate for a period of 30 minutes. Finally, active purified enzyme was added to the tubes at a concentration which was always at least 50 times less than the concentration of the lowest concentration in the mix (to provide saturating conditions.) This concentration varied from purification to purification and the amount added depended upon the yield and specific activity of the purified protease.
Positive controls were set up similarly as described for test controls, except that solvent was added in substitution for the protease inactivator (in a volume equal to the […] volume addition). All of the protease inactivators could be dissolved in dimethylsulfoxide (DMSO), and therefore, this was the solvent of choice. Negative controls were set up by adding the protease inactivator and the cocktail substrates in a tube, without the protease. All potential non-proteolytic induced liberation of AFC was therefore controlled for in this tube (a feature which also insured stability of the AFC substrates, since these substrates will freely liberate AFC when unstable).
All controls were set up in triplicate, and experiments repeated a minimum of five times. The assays were incubated at 37°C, overnight. Percent inhibition was calculated as: % Inhibition = ((AFC positive for ʺSIʺ-AFC negative for ʺSIʺ)-(AFC test-AFC negative for ʺSIʺ))/(AFC positive for ʺSIʺ-AFC negative for ʺSIʺ) × 100 [formula]
Because of this, a dilution study was required in order to determine a viable ranking. Thus, the concentration of each of the protease inactivators was lowered with a dose response setup until the most efficacious concentration for 100% inhibition (EC100) could be determined. […] The final result of the assay was a ranked candidate list of protease inactivators. A lower EC100 was attributable to a higher ranking and vice-versa.
In order to determine Ki, all of the high Vmax cocktail substrates were employed for Ki determination (since Ki of the inhibitor for the enzyme is the same regardless of the substrate). To insure the highest accuracy, Ki was to be determined upon a minimum of at least three of the high Kcat substrates. Nonlinear fitting and the Dixon plot were both employed to determine Ki of the top ranked protease inactivators. A further plot was constructed using either Eadie Hofstee as well as Hanes to determine the mode of inhibition. These methods were used in order to determine the type of inhibition.

T. crassiceps cysts = assay: Therapeutic protection study in BALB/c mice; assay type: in vivo, Taenia crassiceps; conditions: inhibitor treatment began two weeks after infection with T. crassiceps cysts
From the text: Mice in all groups survived without noticeable side effects (e.g., coat condition, tail dragging or paresis, etc).

[2] = system: purified Taenia solium cysteine protease; assay: Competitor assay of low Vmax substrates (vehicles) against high Vmax substrate cocktails (Step III), purified protease; assay type: biochemical; conditions: robustness of inhibition

Row | SMILES | ranking of protease inactivators by EC100 [1] | % Inhibition of T. solium CP in vitro [1] [%] | Ki of protease inactivator [1] | % Therapeutic protection of BALB/c mice (T. crassiceps cysts) [%] | percentage drop in inhibition between the 1.4% and the 7.4% cocktail [2] [%]
1 | CC(C)C[C@H](NC(=O)[C@H](CC(C)C)NC(=O)[C@H](CC(C)C)NC(=O)OCc1ccccc1)C(=O)CF [Z-LLL-FMK, Z-Leu-Leu-Leu-fluoromethylketone] (Cbz-Leu-Leu-Leu-CH2F) | top inhibitors | 100 | lowest Ki values | 60 | –
2 | CC(C)C[C@H](NC(=O)OCc1ccccc1)C(=O)N[C@@H](CC(C)C)C(=O)N[C@@H](CC(C)C)C(=O)Nc1ccc2c(C(F)(F)F)cc(=O)oc2c1 [Z-LLL-AFC, Z-Leu-Leu-Leu-AFC] (Cbz-Leu-Leu-Leu-{AFC}) | – | – | – | – | 25
3 | CC(C)C[C@H](NC(=O)OCc1ccccc1)C(=O)N[C@@H](CC(C)C)C(=O)N[C@@H](Cc1ccc(O)cc1)C(=O)CF [Z-LLY-FMK, Z-Leu-Leu-Tyr-FMK] (Cbz-Leu-Leu-Tyr-CH2F) | top inhibitors | 97 | lowest Ki values | – | –
